Data reported in publication PMC9307983 (Acta Naturae, 2022).

What was measured:
MGL, Ser339Ala = MGL, Ser339Ala (Citrobacter freundii, UniProt Q84AR1, S339A); assay: biochemical; assay type: biochemical
Experimental: The kinetic parameters of the γ- and β-elimination reactions were determined at 30°C in the conjugate reaction with HOHxoDH or LDH based on a decrease in NADH absorbance at 340 nm (Δε = 6,220 M^–1cm^–1). The reaction mixtures contained a 100-mM potassium phosphate buffer, pH 8.0, 0.1 mM PLP, 1 mM DTT, 0.2 mM NADH, 70 μg HOHxoDH or 10 U LDH, and variable amounts of the substrate in a total volume of 1 mL. The reaction was initiated by the addition of 10 μg of the enzyme.
The kinetic parameters were calculated according to the Michaelis–Menten equation using the EnzFitter software. In the calculations, an enzyme subunit molecular weight of 43 kDa was used. The inhibition constants were also determined using the EnzFitter software.

Ser339Ala MGL = Ser339Ala MGL (Citrobacter freundii, UniProt Q84AR1, S339A); assay: coenzyme (PLP) dissociation constant by ultrafiltration, Ser339Ala MGL apoenzyme; assay type: binding; details: mutant enzyme, pH 8.0, 30°C, Scatchard coordinates
Experimental: The apoenzyme and holoenzyme were prepared in a 50-mM potassium phosphate buffer, pH 8.0, containing 1 mM DTT and 1 mM EDTA. The holoenzyme was prepared by adding a 50-fold molar excess of PLP. The mixture was incubated at 25°C for 1 h. The excess PLP was removed by dialysis. The apoenzyme was prepared by adding a 100-fold molar excess of DL-penicillamine to the sample [42]. The mixture was incubated at 25°C for 1 h. DL-Penicillamine was removed by dialysis. The procedure was repeated until the enzyme activity decreased to 1% of the initial activity. The PLP content in the sample was determined in 100 mM NaOH using the molar extinction coefficient of PLP at 390 nm (ε = 6,600 M^–1cm^–1 [43]).
The PLP dissociation constant was determined by ultrafiltration. Varying amounts of PLP (in a range of 5 × 10^–3 to 1.2 × 10^–1 mM) were added to the 8 × 10^–3 mM apoenzyme in a 50-mM potassium phosphate buffer, pH 8.0, containing 1 mM DTT and 1 mM EDTA. After incubation at 30°C for 30 min, free PLP was separated by centrifugation in a Centricon-30 microconcentrator (Amicon, United States) at 5,000 rpm and 4°C for 5 min. The PLP content in each sample was determined in 100 mM NaOH. The data were processed in Scatchard coordinates.

CSCC[C@H](N)C(=O)O = assay: purified protein, by the assay type; details: other: Ser339Ala MGL, 30°C, pH 8.0, coupled with HOHxoDH or LDH

C[C@H](N)C(=O)O [L-Ala, L-alanine]
Ki (MGL, Ser339Ala): 1250 ± 320 µM

Cc1ncc(COP(=O)(O)O)c(C=O)c1O [PLP, pyridoxal 5’-phosphate]
Kd (Ser339Ala MGL): 1.01 µM

MGL, Ser339Ala (Citrobacter freundii; S339A)
Km (CSCC[C@H](N)C(=O)O): 1840 ± 150 µM | kcat (CSCC[C@H](N)C(=O)O): 0.21 s⁻¹
